The target of data set [1] is T1, CgAspAT (Corynebacterium glutamicum, UniProt Q8NTR2).
T1 construct: gene Cgl0240; pET30a, Ni-NTA purified, E. coli BL21(DE3)-T1R host; about 90 kDa homodimer; core domain Leu56-Gly304, C-terminal residue named Asn426
In words: malate dehydrogenase-coupled NADH oxidation, […] nm. The following applies: 300 mM L-aspartate, 50 mM α-ketoglutarate, 100 mM Tris-HCl pH 8.0, 303 K, no added PLP. Type of data set: biochemical.

For data set [2], the target named is T1, CgAspAT. As to the kind of experiment: X-ray crystal structure, […] Å. Type of data set: binding. The following applies: copurified, no PLP added; 28% PEG 3350, 200 mM ammonium citrate dibasic; near Lys259 (known aldimine lysine, covalent bond not stated for this structure).
Data set [3] concerns the molecule itself. As to the kind of experiment: SEC; Sephacryl S-300 prep-grade column (320 ml), 40 mM Tris-HCl pH 8.0, 277 K; last step of the purification; dimer of the protein with itself. In general terms: Size exclusion chromatography separates by hydrodynamic size, large species first.

In the case of `O=C(O)CCC(=O)C(=O)O` [α-ketoglutarate], the “malate dehydrogenase-coupled NADH oxidation, 340 nm” value in data set [1] is “CgAspAT enzymes catalyze L-asparate and α-ketoglutarate to L-glutamate and oxaloacetate”. For `Cc1ncc(COP(=O)(O)O)c(C=O)c1O` [PLP], the “X-ray crystal structure, 2.0 Å” value in data set [2] was “we observed the electron density for the PLP cofactor in our structure without adding it”. As to `N[C@@H](CC(=O)O)C(=O)O` [L-aspartate], the “malate dehydrogenase-coupled NADH oxidation, 340 nm” value in data set [1] was “CgAspAT enzymes catalyze L-asparate and α-ketoglutarate to L-glutamate and oxaloacetate”.

B1: Aspartate aminotransferase from Corynebacterium glutamicum ATCC13032 (enzyme, Corynebacterium glutamicum ATCC 13032)
chain: MSSVSLQDFDAERIGLFHEDIKRKFDELKSKNLKLDLTRGKPSSEQLDFADELLALPGKGDFKAADGTDVRNYGGLDGIVDIRQIWADLLGVPVEQVLAGDASSLNIMFDVISWSYIFGNNDSVQPWSKEETVKWICPVPGYDRHFSITERFGFEMISVPMNEDGPDMDAVEELVKNPQVKGMWVVPVFSNPTGFTVTEDVAKRLSAMETAAPDFRVVWDNAYAVHTLTDEFPEVIDIVGLGEAAGNPNRFWAFTSTSKITLAGAGVSFFLTSAENRKWYTGHAGIRGIGPNKVNQLAHARYFGDAEGVRAVMRKHAASLAPKFNKVLEILDSRLAEYGVAQWTVPAGGYFISLDVVPGTASRVAELAKEAGIALTGAGSSYPLRQDPENKNLRLAPSLPPVEELEVAMDGVATCVLLAAAEHYAN
notes: Aspartate aminotransferase (CgAspAT) of Corynebacterium glutamicum ATCC 13032, gene amplified from chromosomal DNA and cloned into pET30a; residues up to Asn426 are named in the structure; also called CgAspAT; AspAT; source: E. coli BL21(DE3)-T1R, purified (Ni-NTA, size-exclusion chromatography on Sephacryl S-300)
Usually stoichiometry N stands for a count of units in the complex or per binding partner. Consider B1, for which the “stoichiometry N” value in data set [3] was 2.

(Values after PMC4927141, “Structural Insights into a Novel Class of Aspartate Aminotransferase from Corynebacterium glutamicum” (PLoS ONE, 2016).)
